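Interpolation was linear, between the two tested concentrations surrounding the appropriate level; five concentrations were tested over 48 hours in 96-well plates. The concentration for 50% growth inhibition is given as GI50. Definition used: TGI = concentration required for complete inhibition of growth.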
What was measured:
Assay in all cases: NCI anticancer screen, dose series, 48 h
[1] = test system: HS 578T breast
[2] = test system: SR leukemia
[3] = test system: COLO 205 colon
[4] = test system: SF-539 CNS
[5] = test system: OVCAR-5 ovarian
[6] = test system: A498 renal
[7] = test system: SK-MEL-28 melanoma
[8] = test system: HOP-92 NSCLC
[9] = test system: SNB-75 CNS
[10] = test system: HOP-62 NSCLC
[11] = test system: NCI-H460 lung
[12] = test system: T-47D breast
[13] = test system: U251 CNS
[14] = test system: UACC-62 melanoma
[15] = test system: SNB-19 CNS
[16] = test system: SF-295 CNS
[17] = test system: SK-MEL-5 melanoma
[18] = test system: SN12C renal
[19] = test system: MCF7 breast
[20] = test system: EKVX NSCLC
[21] = test system: CCRF-CEM leukemia
[22] = test system: SK-MEL-2 melanoma
[23] = test system: HL-60(TB) leukemia
[24] = test system: LOX IMVI melanoma
[25] = test system: SK-OV-3 ovarian
[26] = test system: NCI-H23 lung
[27] = test system: A549 NSCLC
[28] = test system: HCT-15 colon
[29] = test system: RPMI-8226 leukemia
[30] = test system: MALME-3M melanoma
[31] = test system: ACHN renal
[32] = test system: CAKI-1 renal
[33] = test system: MDA-MB-231 breast
[34] = test system: 786-0 renal
[35] = test system: MDA-MB-468 breast
[36] = test system: RXF 393 renal
[37] = test system: NCI/ADR-RES ovarian
[38] = test system: OVCAR-8 ovarian
[39] = test system: KM12 colon
[40] = test system: HCT-116 colon
[41] = test system: IGROV1 ovarian
[42] = test system: NCI-H522 lung
[43] = test system: BT-549 breast
[44] = test system: SW-620 colon
[45] = test system: MOLT-4 leukemia
[46] = test system: OVCAR-3 ovarian
[47] = test system: TK-10 renal
[48] = test system: MDA-MB-435
[49] = test system: UACC-257 melanoma
[50] = test system: NCI-H226 lung
[51] = test system: DU-145 prostate
[52] = test system: HCC-2998 colon
[53] = test system: UO-31 renal
[54] = test system: HT29 colon
[55] = test system: M14 melanoma
[56] = test system: SF-268 CNS
[57] = test system: PC-3 prostate

**Q.** `Cc1ccc(S(=O)(=O)c2nc(-c3ccccc3)oc2S(=O)(=O)CC(=O)N2CCCC2)cc1` was tested. Which GI50 [1] did it give?
**A.** 3.68 µM

**Q.** What about the TGI [1] of the same compound?
**A.** 28.2 µM

**Q.** And the GI50 [2]?
**A.** 1.49 µM

**Q.** And the TGI [2]?
**A.** 6.6 µM

**Q.** And the GI50 [3]?
**A.** 1.89 µM

**Q.** And the TGI [3]?
**A.** 4.38 µM

**Q.** What about the GI50 [4] of the same compound?
**A.** 1.54 µM

**Q.** What about the TGI [4] of the same compound?
**A.** 2.91 µM

**Q.** And the GI50 [5]?
**A.** 11 µM

**Q.** What about the TGI [5] of the same compound?
**A.** 23.4 µM

**Q.** And the GI50 [6]?
**A.** 11.9 µM

**Q.** And the TGI [6]?
**A.** 24.3 µM

**Q.** And the GI50 [7]?
**A.** 1.82 µM

**Q.** And the TGI [7]?
**A.** 3.54 µM

**Q.** And the GI50 [8]?
**A.** 2.71 µM

**Q.** What about the TGI [8] of the same compound?
**A.** 8.32 µM

**Q.** And the GI50 [9]?
**A.** 3.89 µM

**Q.** And the TGI [9]?
**A.** 17.4 µM

**Q.** And the GI50 [10]?
**A.** 14.4 µM

**Q.** And the TGI [10]?
**A.** 31 µM

**Q.** And the GI50 [11]?
**A.** 7 µM

**Q.** What about the TGI [11] of the same compound?
**A.** 22.5 µM

**Q.** What about the GI50 [12] of the same compound?
**A.** 1.78 µM

**Q.** What about the TGI [12] of the same compound?
**A.** 4.94 µM

**Q.** What about the GI50 [13] of the same compound?
**A.** 15.5 µM

**Q.** What about the TGI [13] of the same compound?
**A.** 29.7 µM

**Q.** And the GI50 [14]?
**A.** 4.53 µM

**Q.** And the TGI [14]?
**A.** 16.5 µM

**Q.** What about the GI50 [15] of the same compound?
**A.** 14.5 µM

**Q.** What about the TGI [15] of the same compound?
**A.** 27.6 µM

**Q.** What about the GI50 [16] of the same compound?
**A.** 12.2 µM

**Q.** And the TGI [16]?
**A.** 25 µM

**Q.** What about the GI50 [17] of the same compound?
**A.** 12.5 µM

**Q.** What about the TGI [17] of the same compound?
**A.** 25.2 µM

**Q.** What about the GI50 [18] of the same compound?
**A.** 6.68 µM

**Q.** And the TGI [18]?
**A.** 19.6 µM

**Q.** And the GI50 [19]?
**A.** 1.17 µM

**Q.** And the TGI [19]?
**A.** 2.9 µM

**Q.** And the GI50 [20]?
**A.** 2.44 µM

**Q.** And the TGI [20]?
**A.** 7.76 µM

**Q.** And the GI50 [21]?
**A.** 0.529 µM

**Q.** What about the TGI [21] of the same compound?
**A.** 2.95 µM

**Q.** What about the GI50 [22] of the same compound?
**A.** 13.1 µM

**Q.** And the TGI [22]?
**A.** 26.2 µM

**Q.** And the GI50 [23]?
**A.** 0.978 µM

**Q.** And the TGI [23]?
**A.** 3.48 µM

**Q.** What about the GI50 [24] of the same compound?
**A.** 1.45 µM

**Q.** What about the TGI [24] of the same compound?
**A.** 2.82 µM

**Q.** And the GI50 [25]?
**A.** 15.6 µM

**Q.** What about the TGI [25] of the same compound?
**A.** 30.5 µM

**Q.** What about the GI50 [26] of the same compound?
**A.** 8.06 µM

**Q.** And the TGI [26]?
**A.** 23.6 µM

**Q.** What about the GI50 [27] of the same compound?
**A.** 13.1 µM

**Q.** And the TGI [27]?
**A.** 29.1 µM

**Q.** And the GI50 [28]?
**A.** 1.4 µM

**Q.** What about the TGI [28] of the same compound?
**A.** 2.92 µM

**Q.** What about the GI50 [29] of the same compound?
**A.** 2.68 µM

**Q.** What about the TGI [29] of the same compound?
**A.** > 100 µM

**Q.** And the GI50 [30]?
**A.** 1.55 µM

**Q.** What about the TGI [30] of the same compound?
**A.** 2.95 µM

**Q.** What about the GI50 [31] of the same compound?
**A.** 1.36 µM

**Q.** And the TGI [31]?
**A.** 2.65 µM

**Q.** And the GI50 [32]?
**A.** 1.21 µM

**Q.** What about the TGI [32] of the same compound?
**A.** 2.5 µM

**Q.** And the GI50 [33]?
**A.** 1.63 µM

**Q.** And the TGI [33]?
**A.** 3.11 µM

**Q.** And the GI50 [34]?
**A.** 1.45 µM

**Q.** And the TGI [34]?
**A.** 2.93 µM

**Q.** And the GI50 [35]?
**A.** 0.587 µM

**Q.** What about the TGI [35] of the same compound?
**A.** 1.97 µM

**Q.** And the GI50 [36]?
**A.** 1.08 µM

**Q.** What about the TGI [36] of the same compound?
**A.** 2.41 µM

**Q.** What about the GI50 [37] of the same compound?
**A.** 11.4 µM

**Q.** And the TGI [37]?
**A.** 65 µM

**Q.** And the GI50 [38]?
**A.** 7.2 µM

**Q.** And the TGI [38]?
**A.** 25.1 µM

**Q.** And the GI50 [39]?
**A.** 14.9 µM

**Q.** What about the TGI [39] of the same compound?
**A.** 32 µM

**Q.** And the GI50 [40]?
**A.** 1.52 µM

**Q.** And the TGI [40]?
**A.** 3.34 µM

**Q.** What about the GI50 [41] of the same compound?
**A.** 6.54 µM

**Q.** What about the TGI [41] of the same compound?
**A.** 20.8 µM

**Q.** And the GI50 [42]?
**A.** 1.06 µM

**Q.** What about the TGI [42] of the same compound?
**A.** 2.49 µM

**Q.** And the GI50 [43]?
**A.** 3.89 µM

**Q.** And the TGI [43]?
**A.** 11.8 µM

**Q.** What about the GI50 [44] of the same compound?
**A.** 0.801 µM

**Q.** What about the TGI [44] of the same compound?
**A.** 2.24 µM

**Q.** What about the GI50 [45] of the same compound?
**A.** 1.73 µM

**Q.** And the TGI [45]?
**A.** 5.22 µM

**Q.** What about the GI50 [46] of the same compound?
**A.** 1.27 µM

**Q.** What about the TGI [46] of the same compound?
**A.** 2.66 µM

**Q.** And the GI50 [47]?
**A.** 1.7 µM

**Q.** And the TGI [47]?
**A.** 3.15 µM

**Q.** What about the GI50 [48] of the same compound?
**A.** 3.08 µM

**Q.** What about the TGI [48] of the same compound?
**A.** 13.8 µM

**Q.** What about the GI50 [49] of the same compound?
**A.** 1.73 µM

**Q.** What about the TGI [49] of the same compound?
**A.** 3.73 µM

**Q.** What about the GI50 [50] of the same compound?
**A.** 13.3 µM

**Q.** What about the TGI [50] of the same compound?
**A.** 34.7 µM

**Q.** And the GI50 [51]?
**A.** 1.63 µM

**Q.** And the TGI [51]?
**A.** 3.37 µM

**Q.** And the GI50 [52]?
**A.** 11.2 µM

**Q.** And the TGI [52]?
**A.** 24.1 µM

**Q.** And the GI50 [53]?
**A.** 1.36 µM

**Q.** And the TGI [53]?
**A.** 2.66 µM

**Q.** What about the GI50 [54] of the same compound?
**A.** 1.54 µM

**Q.** And the TGI [54]?
**A.** 4.05 µM

**Q.** And the GI50 [55]?
**A.** 1.77 µM

**Q.** What about the TGI [55] of the same compound?
**A.** 4.15 µM

**Q.** What about the GI50 [56] of the same compound?
**A.** 12.2 µM

**Q.** And the TGI [56]?
**A.** 33.2 µM

**Q.** What about the GI50 [57] of the same compound?
**A.** 11.8 µM

**Q.** What about the TGI [57] of the same compound?
**A.** 30.7 µM

— PubChem BioAssay (NCI)
